# Test results reported in patent publication US20260070917A1, “CYCLIN DEPENDENT KINASE DEGRADERS AND METHODS OF USE THEREOF” (Differentiated Therapeutics Inc, priority 2023, published 2026).
# Read-outs that look alike come from different tables or passages of the source.
# What was measured:
# Format in all cases: cell-based
# CDK2 = target: T1, CDK2 (Homo sapiens, UniProt P24941); experiment: HiBit Assay Protocol for CDK2 (HIBIT protein quantification, degradation); conditions: HEK293-CDK2-Hibit cells, compound treatment for 6 hours; for DC50: ABS DC50
# T1 construct: host or cells: HEK293-CDK2-Hibit
# Method in brief: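 HEK293 cells expressing HiBiT-tagged CDK2 were seeded overnight, then treated 6 h with a 3-fold, 10-point compound dilution series. CDK2 levels were read as luminescence after lytic HiBiT/LgBiT detection, normalised to DMSO-only and medium-only controls, and DC50 derived by curve fitting.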
# CCNE1 = target: T2, CCNE1 (Homo sapiens, UniProt P24864); experiment: HiBit Assay Protocol for CCNE1 (HIBIT protein quantification, degradation); conditions: HEK293-CCNE1-Hibit cells, compound treatment for 6 hours
# T2 construct: host or cells: HEK293-CCNE1-Hibit
# T2 sequence (P24864 whole entry): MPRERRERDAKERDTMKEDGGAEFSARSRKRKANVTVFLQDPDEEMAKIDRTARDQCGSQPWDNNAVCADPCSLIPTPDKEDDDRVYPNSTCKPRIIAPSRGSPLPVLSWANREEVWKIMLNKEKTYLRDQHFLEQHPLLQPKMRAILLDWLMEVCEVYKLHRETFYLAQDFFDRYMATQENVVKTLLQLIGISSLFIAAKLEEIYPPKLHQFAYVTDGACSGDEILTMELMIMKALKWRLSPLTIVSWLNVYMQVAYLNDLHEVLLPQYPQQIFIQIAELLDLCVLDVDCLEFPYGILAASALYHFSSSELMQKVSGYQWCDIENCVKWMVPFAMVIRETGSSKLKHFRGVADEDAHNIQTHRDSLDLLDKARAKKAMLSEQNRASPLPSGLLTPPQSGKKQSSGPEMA
# Method in brief: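 HEK293 cells expressing HiBiT-tagged CCNE1 were seeded overnight, then treated 6 h with a 3-fold, 10-point compound dilution series. HiBiT levels were read by lytic LgBiT luminescence and normalised to DMSO-only (high) and medium-only (low) controls. DC50 was derived by curve fitting.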
# CDK9 = target: T3, CDK9 (Homo sapiens, UniProt P50750); experiment: HiBit Assay Protocol for CDK9 (HIBIT protein quantification, degradation); conditions: HEK293-CDK9-Hibit cells, compound treatment for 6 hours; for Dmax: read-out: CDK9 HIBIT Protein Quantification Maximum
# T3 construct: host or cells: HEK293-CDK9-Hibit
# T3 sequence (P50750 whole entry): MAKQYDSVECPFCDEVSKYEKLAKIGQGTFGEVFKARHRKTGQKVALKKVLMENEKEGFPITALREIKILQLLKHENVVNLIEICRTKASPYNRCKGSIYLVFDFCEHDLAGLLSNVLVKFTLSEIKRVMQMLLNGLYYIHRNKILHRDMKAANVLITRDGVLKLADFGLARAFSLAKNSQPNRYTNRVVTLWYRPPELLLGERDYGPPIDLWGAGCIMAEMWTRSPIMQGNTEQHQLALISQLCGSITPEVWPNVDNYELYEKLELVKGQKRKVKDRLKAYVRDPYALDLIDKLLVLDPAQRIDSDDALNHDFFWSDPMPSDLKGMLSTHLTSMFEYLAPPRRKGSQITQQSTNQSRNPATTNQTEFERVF
# Method in brief: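 HEK293 cells carrying HiBiT-tagged CDK9 treated 6 h with compounds in a 3-fold, 10-point dilution series. CDK9 level read by lytic Nano-Glo HiBiT/LgBiT luminescence and normalized to 0.1% DMSO (high) and medium-only (low) controls. DC50 from curve fitting.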
SMILES,CDK2 HIBIT Protein Quantification Maximum (CDK2) [%],CCNE1 HIBIT Protein Quantification Maximum (CCNE1) [%],Dmax (CDK9; 6 h) [%],DC50 (CDK2) [nM],Dmax (CDK9) [%],DC50 (CDK9; ABS DC50) [nM]
CC1CCCC1N1C(=O)C2(CC2)c2cnc(NC3CCN(S(=O)(=O)N4CC5(CCCCN5C(=O)CCCCc5ccc6c(c5)n(C)c(=O)n6C5CCC(=O)NC5=O)C4)CC3)nc21 (centres unmarked) [Compound 106],32,3,12,–,–,–
CC1CCCC1N1C(=O)C2(CC2)c2cnc(NC3CCN(S(=O)(=O)N4CC5(CCCN(C(=O)CCCCc6ccc7c(c6)n(C)c(=O)n7C6CCC(=O)NC6=O)C5)C4)CC3)nc21 (centres unmarked) [Compound 107],28,25,22,–,–,–
CC1CCCC1N1C(=O)C2(CC2)c2cnc(NC3CCN(S(=O)(=O)N4CC5(CN(C(=O)CCCCc6ccc7c(c6)n(C)c(=O)n7C6CCC(=O)NC6=O)C5)C4)CC3)nc21 (centres unmarked) [Compound 108],42,16,4,–,–,–
CC1CCCC1N1C(=O)C2(CC2)c2cnc(NC3CCN(S(=O)(=O)N4CC5(CCN(C(=O)CCCCc6ccc7c(c6)n(C)c(=O)n7C6CCC(=O)NC6=O)CC5)C4)CC3)nc21 (centres unmarked) [Compound 109],57,22,47,4,–,–
CC1CCCC1N1C(=O)C2(CC2)c2cnc(NC3CCN(S(=O)(=O)N4CC5C4CCN5C(=O)CCCCc4ccc5c(c4)n(C)c(=O)n5C4CCC(=O)NC4=O)CC3)nc21 (centres unmarked) [Compound 110],20,5,14,–,–,–
CC1CCCC1N1C(=O)C2(CC2)c2cnc(NC3CCN(S(=O)(=O)N4CC5CN(C(=O)CCCCc6ccc7c(c6)n(C)c(=O)n7C6CCC(=O)NC6=O)CC54)CC3)nc21 (centres unmarked) [Compound 111],13,9,25,–,–,–
CC1CCCC1N1C(=O)C2(CC2)c2cnc(NC3CCN(S(=O)(=O)N4CCC5(CCN(C(=O)CCCCc6ccc7c(c6)n(C)c(=O)n7C6CCC(=O)NC6=O)C5)C4)CC3)nc21 (centres unmarked) [Compound 112],22,14,28,–,–,–
CC1CCCC1N1C(=O)C2(CC2)c2cnc(NC3CCN(S(=O)(=O)N4CCCN(C(=O)CCCCc5ccc6c(c5)n(C)c(=O)n6C5CCC(=O)NC5=O)CC4)CC3)nc21 (centres unmarked) [Compound 113],21,28,6,–,–,–
"Cn1nc(N2CCC(=O)NC2=O)c2ccc(C3CCN(Cc4cccc(S(=O)(=O)N5CCC(Nc6ncc7c(n6)N([C@@H]6CCC[C@@H](O)C6)C(=O)C76CC6)CC5)c4)CC3)cc21 [Compound 118, 1-(6-(1-(3-((4-((7′-((1R,3R)-3-hydroxycyclohexyl)-6′-oxo-6′,7′-dihydrospiro[cyclopropane-1,5′-pyrrolo[2,3-d]pyrimidin]-2′-yl)amino)piperidin-1-yl)sulfonyl)benzyl)piperidin-4-yl)-1-methyl-1H-indazol-3-yl)dihydropyrimidine-2,4(1H,3H)-dione]",76,44,14,7,–,–
"O=C1CCC(N2Cc3cc(N4CCC(CN5CCN(c6cccc(S(=O)(=O)N7CCC(Nc8ncc9c(n8)N([C@@H]8CCC[C@@H](O)C8)C(=O)C98CC8)CC7)c6)CC5)CC4)ccc3C2=O)C(=O)N1 (stereo partly drawn) [Compound 119, 3-{5-[4-({4-[3-(4-{7′-[(1R,3R)-3-hydroxycyclohexyl]-6′-oxospiro[cyclopropane-1,5′-pyrrolo [2,3-d]pyrimidin]-2′-ylamino}piperidin-1-ylsulfonyl)phenyl]piperazin-1-yl}methyl)piperidin-1-yl]-1-oxo-3H-isoindol-2-yl}piperidine-2,6-dione]",70,22,–,3,25,–
O=C1CCC(N2Cc3cc(N4CC5(CN(Cc6cccc(S(=O)(=O)N7CCC(Nc8ncc9c(n8)N([C@@H]8CCC[C@@H](O)C8)C(=O)C98CC8)CC7)c6)C5)C4)ccc3C2=O)C(=O)N1 (some centres unmarked) [Compound 120],62,23,25,23,–,–
"O=C1CCC(N2Cc3cc(N4CCN(Cc5cccc(S(=O)(=O)N6CCC(Nc7ncc8c(n7)N([C@@H]7CCC[C@@H](O)C7)C(=O)C87CC7)CC6)c5)CC4)c(F)cc3C2=O)C(=O)N1 (stereo partly drawn) [Compound 121, 3-(6-fluoro-5-(4-(3-((4-((7′-((1R,3R)-3-hydroxycyclohexyl)-6′-oxo-6′,7′-dihydrospiro [cyclopropane-1,5′-pyrrolo[2,3-d]pyrimidin]-2′-yl)amino)piperidin-1-yl)sulfonyl)benzyl)piperazin-1-yl)-1-oxoisoindolin-2-yl)piperidine-2,6-dione]",79,44,12,47,–,–
"O=C1CCC(N2Cc3cc(N4CCN(CC5CCN(c6cccc(S(=O)(=O)N7CCC(Nc8ncc9c(n8)N([C@@H]8CCC[C@@H](O)C8)C(=O)C98CC8)CC7)c6)CC5)CC4)ccc3C2=O)C(=O)N1 (stereo partly drawn) [Compound 122, 3-{5-[4-({1-[3-(4-{7′-[(1R,3R)-3-hydroxycyclohexyl]-6′-oxospiro[cyclopropane-1,5′-pyrrolo [2,3-d]pyrimidin]-2′-ylamino}piperidin-1-ylsulfonyl)phenyl]piperidin-4-yl}methyl)piperazin-1-yl]-1-oxo-3H-isoindol-2-yl}piperidine-2,6-dione]",79,25,–,7,22,–
O=C1CCC(N2Cc3cc(C4CN(Cc5cccc(S(=O)(=O)N6CCC(Nc7ncc8c(n7)N([C@@H]7CCC[C@@H](O)C7)C(=O)C87CC7)CC6)c5)C4)ccc3C2=O)C(=O)N1 (some centres unmarked) [Compound 123],52,47,8,92,–,–
"O=C1CCC(N2Cc3cc(N4CCC(CN5CCN(c6cccc(S(=O)(=O)c7ccc(Nc8ncc9c(n8)N([C@@H]8CCC[C@@H](O)C8)C(=O)C98CC8)cc7)c6)CC5)CC4)ccc3C2=O)C(=O)N1 (stereo partly drawn) [Compound 124, 3-{5-[4-({4-[3-(4-{7′-[(1R,3R)-3-hydroxycyclohexyl]-6′-oxospiro [cyclopropane-1,5′-pyrrolo[2,3-d]pyrimidin]-2′-ylamino}benzenesulfonyl)phenyl]piperazin-1-yl}methyl)piperidin-1-yl]-1-oxo-3H-isoindol-2-yl}piperidine-2,6-dione]",61,48,–,6,57,73.6
O=C1CCC(N2Cc3cc(N4CCC(N5CC(Oc6cccc(S(=O)(=O)c7ccc(Nc8ncc9c(n8)N([C@@H]8CCC[C@@H](O)C8)C(=O)C98CC8)cc7)c6)C5)CC4)ccc3C2=O)C(=O)N1 (some centres unmarked) [Compound 127],69,46,49,6,–,–
Cn1c(=O)n(C2CCC(=O)NC2=O)c2cccc(C3CCN(CC4CCN(S(=O)(=O)c5ccc(Nc6ncc7c(n6)N([C@@H]6CCC[C@@H](O)C6)C(=O)C76CC6)cc5)CC4)CC3)c21 (some centres unmarked) [Compound 128],32,32,34,–,–,–
CC1CCCC1N1C(=O)C2(CC2)c2cnc(NC3CCN(S(=O)(=O)N4CCC5(CCN(C(=O)CCCc6ccc7c(c6)n(C)c(=O)n7C6CCC(=O)NC6=O)C5)C4)CC3)nc21 (centres unmarked) [Compound 129],51,18,17,42,–,–
